Assay results: patent US20160143929A1, “ADMINISTRATION OF GL[…] THE TREATMENT OF CANCER” (Threshold Pharmaceuticals, Inc., priority 2008, published 2016)

Columns and labels:
[1] = Phase I study: pharmacokinetics of Glufosfamide by 6 h intravenous infusion; conditions: over the dose range studied, 3200-6000 mg/m^2
Excerpt: Patients were ineligible if they had symptomatic brain metastasis; other nonmalignant systemic disease; an active, uncontrolled infection; preexisting nephrotoxicity of grade 3 or 4 (NCI Common Toxicity Criteria—NCI-CTC) resulting from previous therapy; or infection with HIV, HBV, or HCV. They were also ineligible if they were pregnant or nursing, or if they required steroid therapy.
This open-label, dose-escalation Phase I study was based on intravenous infusion of the drug in three cohorts of Japanese subjects with malignant solid tumors. Glufosfamide was administered intravenously over 6 h in a total volume of 1000 mL of normal saline at doses of 3200, 4500, and 6000 mg/m^2. One-quarter of the dose was administered during the first 30 min at a rate of 500 mL/h, with the remainder of the dose being administered over the subsequent 330 min at a rate of 136 mL/h. Glufosfamide was administered on day 1 once every 3 weeks. Antiemetic premedication was not mandatory in the protocol. Granulocyte colony-stimulating factor (G-CSF) was administered for febrile neutropenia, sepsis with neutropenia, or recurrent neutropenia of grade 4.
Pharmacokinetic sampling was performed for the first and second cycles.

[2] = Phase I dose-escalation study: safety, DLT, MTD and RD; type: in vivo, human
Protocol: (§1) A medical history was obtained from each patient, and physical examinations and routine laboratory evaluations were performed before treatment initiation and weekly thereafter, Chest and other relevant x-rays were obtained during screening and after alternate cycles of treatment. Adverse events were monitored and recorded throughout the study and were graded according to NCI-CTC, version 3.0. The tumor response was assessed for measurable target lesions according to Response Evaluation Criteria in Solid Tumors (RECIST).
(§2) Antiemetic premedication was not mandatory in the protocol.
The starting dose of Glufosfamide was 3200, which was increased to 4500 and then to 6000 in subsequent cohorts of at least three patients. The following adverse events during cycle 1 were defined as DLTs (dose-limiting toxicities): neutropenia of grade 4 (ANC of <500/uL) for >7 days; febrile neutropenia (fever of >38 degrees C. with an ANC of <1000/uL); thrombocytopenia (platelet count of <25,000/uL); nausea or vomiting of grade > (or equal to) 3 despite maximal antiemetic therapy; and any other nonhematologic toxicity of grade > (or equal to) 3 considered drug-related. If any patient experienced a DLT during the first cycle, three additional patients were treated at the same dose. Patients who experienced a DLT could continue Glufosfamide therapy at the preceding dose level. Treatment in subsequent courses was reinitiated only after hematologic recovery (ANC of > (or equal to) 1500/uL, platelet count of > (or equal to) 100,000/uL) and resolution of all other toxicities to grade < (or equal to) 1 or baseline intensity. The MTD (maximum tolerated dose) was defined as the dose at which two or more patients experienced a DLT in the first cycle. The RD (recommended dose) was defined as the dose level immediately below the MTD. In accordance with the methods of the invention, both the RD and MTD (and intermediate doses) can be administered to patients, with the RD preferred for Japanese and other patients of Asian origin and the MID preferred for other patients.

solid tumors = test: Phase I study: tumor response by RECIST; type: in vivo, human
Protocol: as §1, §2

pancreatic cancer = pancreatic cancer patients relapsed after or not responding to gemcitabine; cited from earlier work
[3] = Caucasian patients, intravenous infusion; cited from earlier work

| Compound | dose linearity of pharmacokinetics [1] | patients with neutropenia of grade 4 ([2]; 4500 mg/m^2, cycle 2, without infection, short-lived, 13 patients) | patients with grade 4 anemia requiring red blood cell transfusion ([2]; 4500 mg/m^2, cycle 3) | patients with DLTs ([2]; 6000 mg/m^2, cycle 1, grade 3 metabolic acidosis, hypophosphatemia, hypokalemia) | MTD (maximum tolerated dose) ([2]; Japanese patients, 6 h iv infusion day 1 every 3 weeks, dose at which two or more patients had a DLT in cycle 1) [mg/m^2] | RD (recommended dose) ([2]; Japanese patients, 6 h iv infusion every 3 weeks, dose level immediately below MTD) [mg/m^2] | predominant nonhematologic toxicities ([2]; all dose levels, generally transient and reversible) | DLTs ([2]; two lowest doses (3200 and 4500 mg/m^2), cycle 1) | partial response (solid tumors; among thirteen evaluable patients, advanced gall bladder cancer, 4500 mg/m^2, after two cycles) | subjects showing stabilization of disease (solid tumors; among thirteen evaluable patients, colorectal (4), gastric, thymic cancer, thymoma, non-small cell lung cancer) | patients with evidence of antitumor activity (solid tumors; among thirteen patients evaluable for response) | duration of partial response (solid tumors; person, advanced gall bladder cancer, 4500 mg/m^2, two cycles) | Phase III trial outcome (pancreatic cancer) | anticancer activity in Phase III trial (pancreatic cancer) | dose that is well tolerated [3] [mg/m^2] |
| --- | --- | --- | --- | --- | --- | --- | --- | --- | --- | --- | --- | --- | --- | --- | --- |
| O=P(O)(NCCCl)NCCCl [IPM, isophosphoramide mustard] | linear pharmacokinetics | – | – | – | – | – | – | – | – | – | – | – | – | – | – |
| O=P(NCCCl)(NCCCl)O[C@@H]1O[C@H](CO)[C@@H](O)[C@H](O)[C@H]1O [Glufosfamide, beta-D-glucosyl-isophosphoramide mustard] | linear pharmacokinetics | only one patient | one patient | two of three treated patients experienced DLTs | 6000 | 4500 | fatigue, nausea, a high urinary concentration of beta 2 microglobulin, hypophosphatemia, hypokalemia, and metabolic acidosis | No DLTs occurred | one partial response | eight subjects | nine patients | greater than five months | did not meet its endpoints | did exhibit anticancer activity in some patients | 6000 |
